Laboratory results reported in patent US20100286076A1, “ECTOPARASITICIDAL METHODS AND FORMULATIONS” (priority 2009, published 2010).

Experiments:
[1] = test system: House Fly; assay: Adult House Fly Assay (AhsF), feeding on compound-soaked dental wicks, 24 h mortality; parameters: species or system Musca domestica; details: adult house flies
Procedure: Adult Stable or House Fly Assay (ASF, AhsF). This assay is conducted essentially as described in White, W. H., S. M. Bauer, X. Zhao et al., Comparison of in vitro and in vivo ectoparasiticide activity of an experimental benzimidazole-carbamate with permethrin and amitraz, J. Med. Entomol. 42, 207-211 (2005); and White, W. H., C. M. McCoy, J. A. Meyer et al., Knockdown and mortality comparisons among spinosad-, imidacloprid-, and methomyl-containing baits against susceptible Musca domestica (Diptera: Muscidae) under laboratory conditions, J. Econ. Entomol. 100, 155-163 (2007).
Test material is formulated in DMSO at 10 mM. Doubling dilutions in like solvent are made to yield 10 testing levels. Materials are diluted in either bovine serum (stable flies) or 5% glucose solution (house flies) to obtain desired exposure concentrations from 200-0.39 μM. Approximately 3 ml of diluted test material is placed into a test tube (n=3 per test level) and a dental wick is used to absorb fluid. One dental wick is placed into a small weigh boat inside of a 100 mm Petri dish. Approximately 10 mixed-sex adult flies are anesthetized using carbon dioxide and counted into each dish. Dishes are incubated at 27° C. and 50-70% relative humidity. Flies recover from anesthesia and feed on compound-soaked dental wicks. After 24 h, live/dead flies are enumerated. Nonlinear regression is used to model dose-mortality relationship and obtain relative potency (LD50) data compared to contemporaneous controls (solvent-only or permethrin).

[2] = test system: adult cat flea, Ctenocephalides felis; assay: Oral administration per os to dogs, experimental adult cat flea infestation, comb counts; assay type: in vivo
Procedure: Oral administration per os to dogs. Given the above data, investigation into oral efficacy in dogs was begun. The investigation was conducted to evaluate 1) efficacy for a point dose of 30 mg/kg, against experimental, concurrent infestations with the adult cat flea, Ctenocephalides felis; adult stage American dog ticks, Dermacentor variabilis; and adult stage kennel ticks, Rhipicephalus sanguineus; 2) plasma concentrations of the 30 mg/kg treated dogs; and 3) efficacy for point dosages of either 50 mg/kg or 100 mg/kg, against experimental infestations with adult stage kennel ticks, R. sanguineus.
Sixteen dogs were selected for two groups of eight dogs (4 male: 4 female) per group. One treatment group received spinetoram, while the other group was left untreated. The dogs were housed individually in concrete-floored chain-link kennels both inside and outside. During the study period the dogs were fed a dry dog chow, except for the day of treatment (day 0) when they received wet canned food. The dogs had ad libitum access to water.
The first group on day 0 received one or more gelatin capsules containing spinetoram powder by mouth, in the amount of 30 mg/kg, while the untreated group received placebo. For the evaluation of the higher doses (50 and 100 mg/kg) for efficacy against R. sanguineus, dogs from the 30 mg/kg group were re-dosed at the higher levels approximately 2.5 months after the low dose administration, once the flea efficacy data had been collected.
Each dog was experimentally infested with about 100 adult fleas, and 50 ticks of each species on test days—1,5,12,19, 28, 35, and 42, with additional flea infestations conducted on days 49 and 56. Knockdown assessments against both ticks and fleas were conducted 24 hours after dosing. All subsequent counts were conducted 48 hours after infestation. For the higher doses, the dogs were infested with around 50 R. sanguineus ticks one day before re-dosing and again 5 days post re-dosing, with comb counts conducted approximately 24 hours thereafter. Knockdown activity (Day 1) was determined using 24 hr post-dosing comb counts. For all post-treatment residual tick counts, the comb count occurred 48 hours post infestation. Blood samples were drawn on days 14, 21, 28, and 35 to determine concentration of spinetoram in plasma.

In the case of Spinetoram, the EC50 ([1]; 24 h, 5% glucose solution, read-out: Potency (24 h EC50 μM)) is reported as 2.18 µM, the “Spinetoram/Spinosad Potency Ratio” value ([1]; 24 h EC50) is reported as 5.5 and the “geometric mean percent flea reduction, Day 7” value ([2]; oral 30 mg/kg, Day 7) is reported as 100%. The “geometric mean percent flea reduction, Day 14” value ([2]; oral 30 mg/kg, Day 14) was 100%, the “geometric mean percent flea reduction, Day 21” value ([2]; oral 30 mg/kg, Day 21) was 99.5% and the “geometric mean percent flea reduction, Day 30” value ([2]; oral 30 mg/kg, Day 30) was 100%. For the same substance, the “geometric mean percent flea reduction, Day 37” value ([2]; oral 30 mg/kg, Day 37) was 98.9%, the “geometric mean percent flea reduction, Day 44” value ([2]; oral 30 mg/kg, Day 44) was 99.7% and the “geometric mean percent flea reduction, Day 51” value ([2]; oral 30 mg/kg, Day 51) was 98.2%. For the same substance, the “geometric mean percent flea reduction, Day 58” value ([2]; oral 30 mg/kg, Day 58) was 96.9%, the “geometric mean percent flea reduction, Knockdown” value ([2]; oral 30 mg/kg, Knockdown) was 99.7% and the residual control ([2]; oral point dose 30 mg/kg, extends beyond 8 weeks) was > 97%.
